{
  "source": "paper PMC8648872",
  "about": "“A host-directed macrocyclic peptide therapeutic for MDR gram negative bacterial infections” (Scientific Reports, 2021)",
  "key": {"[1]": {"system": "RAW 264.7 macrophages", "test": "Phagocytosis assay, RAW 264.7 macrophages with live Kp-1705", "type": "cell-based, mouse", "conditions": "RAW 264.7 cells, live Kp-1705, MOI 50:1, 0–10 µg/ml peptide, 30 min, 37 °C", "method": "(§1) Mouse RAW 264.7 macrophages (RAW cells; ATCC, TIB-71) were grown in Dulbecco’s Modified Eagle Medium (DMEM) with 10% heat-inactivated fetal bovine serum (HI-FBS) with 100 U/ml penicillin/streptomycin, and suspended to 2–3 × 10^6 cells/ml in fresh media before use.\nKp-1705 was grown overnight, harvested by centrifugation, washed twice, resuspended in Hank’s Balanced Salt Solution (HBSS), and adjusted to a density of 2.5 × 10^8 CFU/ml. Bacteria were pre-incubated with varied concentrations of MTD12813 at room temperature for 30 min, and incubated (MOI 50:1) with RAW cells (2.5 × 10^6 cell/ml) with orbital shaking at 37 °C for 30 min. Cytospin preparations of 100 µl (2.5 × 10^5 RAW cells/slide) samples were then prepared, fixed with methanol, and stained with hematoxylin and eosin (H & E). Slides were viewed at 100× and 50 RAW cells selected from random fields were manually counted for number of cell associated bacteria. All samples were run in duplicate and experiments performed twice."}, "[2]": {"test": "Peptide stability with log-phase Kp-1705 (bacterial proteases)", "type": "in vitro ADME, K. pneumoniae", "conditions": "suspension of log-phase Kp-1705 bacteria, log-phase Kp-1705 (5 × 10^7 CFU/ml), 50 mM HEPES pH 7.4, 37 °C, LC–MS/MS, read-out: MTD12813 found intact", "method": "MTD12813 (final concentration of 100 µg/ml) was added to either 90% human EDTA plasma or 90% human serum and incubated at 37 °C for 48 h. Samples were processed by addition of 10% HOAc and 5% ACN (final concentrations) at time 0 and 48 h, and MTD12813 was quantified by C18 RP-HLPC on an Acquity H-Class UPLC with an analytical PDA detector using Empower 3 software (Waters). All samples were performed with technical replicates and analyzed by UPLC in duplicate and the experiment repeated once. […] A time 0 h sample was collected, and the remaining suspension incubated at 37 °C for 24 h. Samples were processed by addition of 5% formic acid/5% acetonitrile, vortexed, and clarified at 22,000×g for 10 min. Supernatant MTD12813 was then quantified by LC–MS/MS as described in PK section above. All samples were performed with technical replicates and analyzed by LC–MS/MS in duplicate."}, "[3]": {"system": "RAW 264.7 macrophages", "test": "TNF release by LPS-stimulated RAW 264.7 cells", "type": "cell-based, mouse", "conditions": "RAW 264.7, 5 ng/ml LPS, 2 h, ELISA", "method": "as §1\nRAW cells were seeded into 48-well tissue culture plates at 1–1.5 × 10^5 cells/well and allowed to adhere overnight. Cells were washed twice and suspended in DMEM with 1% FBS with 0–5 µg/ml of MTD12813 immediately followed by addition of 5 ng/ml (25 EU/ml) of E. coli 0111:B4 LPS (Sigma L4391). Plates were incubated for 2 h at 37 °C in 5% CO2. Well contents were removed, clarified by centrifugation, and supernatants frozen at − 80 °C. Supernatant TNF was quantified by mouse TNF ELISA (Invitrogen, Cat #BMS607-3)."}, "[4]": {"system": "Kp-1705", "test": "Antibacterial activity of peptide-containing peritoneal fluid", "type": "cell-based, K. pneumoniae", "conditions": "Kp-1705 incubated in PF containing 7.5 µg/ml peptide, 1 h, 37 °C, CFU plating", "method": "Cryopreserved Kp-1705 was suspended in PBS to a density of ca. 1 × 10^9 CFU/ml, and incubated with saline or 1.25 µg/ml MTD12813 at room temperature for 1 h. Mice (n = 26) were then infected i.p. with 500 µl of saline- or MTD12813- pretreated Kp-1705, and a third cohort (n = 12) received 500 µl i.p. of 1.25 µg/ml MTD12813 immediately following infection with saline treated Kp-1705. Five mice from each cohort were euthanized 4 h p.i., and peritoneal lavage was collected for bacterial burden determination and cytospin preparation. In vitro antibacterial activity of MTD12813 (1.25 μg/ml) -treated cells (1 h; 37 °C) was determined by plating saline or peptide treated cells on TSA plates. Growth kinetics of saline and MTD12813-treated cells was determined by diluting samples from the 1 h incubation mixtures 1:40 into TSB and monitoring growth (620 nm) for 5.5 h at 37 °C. Antibacterial activity of MTD12813 in PF was determined by i.p. injection of naïve male BALB/c mice (n = 5 per group) with 1.25 mg/kg of MTD12813 or saline i.p. (10 ml/kg). […] Peritoneal fluid was clarified by centrifugation at 1200×g and an aliquot used to quantify MTD12813 by LC–MS/MS, as described above. Antimicrobial activity was determined by incubating PF (9:1 vol/vol) with Kp-1705 at a final density of 3 × 10^7 CFU/ml. […]"}, "[5]": {"test": "Single dose pharmacokinetics (plasma and peritoneal fluid)", "type": "in vivo, BALB/c mice", "conditions": "both sexes, mouse, ip, 1.25 mg/kg single i.p., LC-MS/MS", "method": "Single dose PK of MTD12813 was evaluated by quantifying plasma peptide concentrations following 1.25 mg/kg injections administered i.p. to 2 M/2F BALB/c mice. EDTA plasma was prepared from blood collected aseptically by terminal cardiac puncture. MTD12813 plasma concentrations were determined by reverse-phase liquid chromatography (XBridge phenyl 3.5 µm column, Waters) on an Acquity H-Class UPLC (Waters) with tandem electrospray mass spectroscopy on a Xevo TQ-S running MassLynx V4.1 (Waters). Quantitative mass spectroscopy was performed by multiple-reaction monitoring transition 394.04 > 519.35, with area under the curve determined by TargetLynx (Waters).\nCryopreserved Kp-1705 was suspended in PBS to a density of ca. 1 × 10^9 CFU/ml, and incubated with saline or 1.25 µg/ml MTD12813 at room temperature for 1 h. […] In vitro antibacterial activity of MTD12813 (1.25 μg/ml) -treated cells (1 h; 37 °C) was determined by plating saline or peptide treated cells on TSA plates. Growth kinetics of saline and MTD12813-treated cells was determined by diluting samples from the 1 h incubation mixtures 1:40 into TSB and monitoring growth (620 nm) for 5.5 h at 37 °C. Antibacterial activity of MTD12813 in PF was determined by i.p. injection of naïve male BALB/c mice (n = 5 per group) with 1.25 mg/kg of MTD12813 or saline i.p. (10 ml/kg). […]"}},
  "note": "Entries after “also recorded” stand apart in the source; their conditions may differ. Where a SMILES comes first, the peptide text is derived from it. Bridges are numbered along the chain shown (N, C = ends).",
  "data": [
    {"smiles": "CC[C@H](C)[C@@H]1NC(=O)[C@@H]2CSSC[C@H](NC(=O)[C@H]([C@@H](C)CC)NC(=O)[C@@H]3CSSC[C@H](NC1=O)C(=O)N[C@@H](C(C)C)C(=O)NCC(=O)N[C@@H](CCCNC(=N)N)C(=O)NCC(=O)N3)C(=O)N[C@@H](C(C)C)C(=O)N[C@@H](CCCNC(=N)N)C(=O)N[C@@H](CCCNC(=N)N)C(=O)N[C@@H](CCCNC(=N)N)C(=O)N2", "note": "[MTD12813] (cyclo(CICVGRGCICVRRR); disulfide 1-10, 3-8)", "values": [
      {"measurement": "concentration of maximal phagocytic activity", "setting": "[1]", "result": 0.313, "unit": "µg/mL"},
      {"measurement": "remaining at 24 h, 1.25 µg/ml", "setting": "[2]", "result": "72.4 ± 0.93", "unit": "%"},
      {"measurement": "concentration for 50% TNF suppression relative to RTD-1", "setting": "[3]", "result": "ca. fourfold lower concentration than RTD-1"},
      {"measurement": "bacterial killing in peritoneal fluid containing peptide", "setting": "[4]", "result": "no bacterial killing was observed; also recorded: no bactericidal activity"},
      {"measurement": "Cmax", "setting": "[5]; naïve BALB/c mice (2M/2F per time point), EDTA plasma, read-out: peak plasma concentration (Cmax)", "result": "251 ± 79.8", "unit": "ng/mL"},
      {"measurement": "Tmax", "setting": "[5]; naïve male and female BALB/c mice (2M/2F per time point), plasma", "result": 15, "unit": "min"}
    ]}
  ]
}
